The source of these data is US20150110716A1, “METHODS OF USING SPECT/CT ANALYSIS FOR STAGING CANCER” (Molecular Insight Pharmaceuticals, Inc., priority 2013, published 2015).

Series [1] has as its target PSMA (Homo sapiens, UniProt Q04609). Nature of the series: In vitro binding studies to PSMA. The note with it: read-out: affinity of binding to PSMA. An excerpt: As illustrated, the dimeric backbone of both Formula (1) and Formula (2) compounds contain carboxylate residues that bind to the basic substrate binding pockets of the protein. The radiolabel chelator is attached to the side chain carboxyl residue (Formula (1)) or the side chain amine group (Formula (2)) through an intervening linker.

The nature of series [2]: Phase 1 cross-over study: pharmacokinetics, biodistribution, dosimetry, excretion. The format is in vivo, human. The source says: (§1) Pharmacokinetics, Biodistribution, Dosimetry, Metabolism & Excretion of compound represented by Formula (1) and Formula (2). Methods: Fourteen subjects (7 metastatic prostate cancer patients and 7 healthy, normal males) were enrolled in a phase 1, single-blind, randomized, cross-over study in which subjects were randomly administered a single dose (740 MBq; 20 mCi) of a compound represented by Formula (1) and a similar chemical analog, a compound represented by Formula (2), 14 days apart. […] (FIGS. 1 and 2A)

The subject of series [3] is lesions in lymph nodes and bone of men with prostate cancer. Nature of the series: Phase 1 cross-over study: whole-body and SPECT/CT lesion imaging. The class given is in vivo, human. Conditions: patient with prior prostatectomy and rising PSA, FIG. 2C.
Excerpt: as §1

Chain of PSMA (Q04609 whole entry): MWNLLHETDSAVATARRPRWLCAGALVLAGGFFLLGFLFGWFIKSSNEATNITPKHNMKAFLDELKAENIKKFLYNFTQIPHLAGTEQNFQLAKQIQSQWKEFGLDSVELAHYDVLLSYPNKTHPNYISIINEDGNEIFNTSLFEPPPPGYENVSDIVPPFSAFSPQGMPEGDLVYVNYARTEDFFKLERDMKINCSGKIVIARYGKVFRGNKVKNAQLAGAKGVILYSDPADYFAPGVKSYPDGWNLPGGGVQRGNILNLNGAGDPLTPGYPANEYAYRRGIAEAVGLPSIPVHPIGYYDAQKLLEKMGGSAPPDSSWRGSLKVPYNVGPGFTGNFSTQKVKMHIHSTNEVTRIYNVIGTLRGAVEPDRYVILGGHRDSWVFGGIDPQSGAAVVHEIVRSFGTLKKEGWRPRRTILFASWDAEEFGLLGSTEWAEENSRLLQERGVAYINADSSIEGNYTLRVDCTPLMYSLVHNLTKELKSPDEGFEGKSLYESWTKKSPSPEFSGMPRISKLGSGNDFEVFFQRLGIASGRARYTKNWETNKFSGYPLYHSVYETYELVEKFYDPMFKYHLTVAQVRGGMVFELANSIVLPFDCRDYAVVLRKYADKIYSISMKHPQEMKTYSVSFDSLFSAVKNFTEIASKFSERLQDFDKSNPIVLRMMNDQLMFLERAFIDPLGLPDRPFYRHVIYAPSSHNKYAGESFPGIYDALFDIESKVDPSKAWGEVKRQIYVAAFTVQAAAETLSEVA

Regarding `N[C@@H](CCCC[N+]12Cc3n(CC(=O)O)cc[n+]3[Tc-2]1[n+]1ccn(CC(=O)O)c1C2)C(=O)NCCCCC(NC(=O)NC(CCC(=O)O)C(=O)O)C(=O)O.[C-]#[O+].[C-]#[O+].[C-]#[O+]` (stereo partly drawn) [Formula (2)], the Kd in series [1] was 31 nM.
Take `N[C@@H](CCCC[N+]12Cc3n(CC(=O)O)cc[n+]3[99Tc-2]1[n+]1ccn(CC(=O)O)c1C2)C(=O)NCCCCC(NC(=O)NC(CCC(=O)O)C(=O)O)C(=O)O.[C-]#[O+].[C-]#[O+].[C-]#[O+]` (stereo partly drawn) [Formula (2)]: in series [2] (FIG. 1A), the “period over which compound is cleared from blood” value is “about 1500 minutes”. The physiological clearance rate result in series [2] (Formula (2) compared with Formula (1)) was “more rapid”. The “rate of clearance from blood” value in series [2] (Formula (2) compared with Formula (1), FIG. 1A) is listed as “greater”. For the same compound, the “clearance from these organs” value in series [2] (Formula (2) compared with Formula (1), full body scans over 24 hours) is listed as “clears more rapidly”. The tissues of accumulation entry in series [2] (in vivo pharmacokinetic and biodistribution studies) is “liver, kidneys and salivary glands as well as the urinary bladder and prostate tissue”. Besides, in series [2] (single dose 740 MBq (20 mCi)), the “estimated radiation dose (dosimetry)” value is listed as “within the clinically acceptable range”. Also, the “amount excreted in urine” value in series [2] (urine samples over 30 hours post administration, Formula (2) compared with Formula (1), FIG. 1B) is “significantly greater amount”. Further, the “detection of metastatic lesions compared with bone scan” value in series [3] is “identified multiple foci of metastatic cancer not seen in the bone scan”.
